Tests used:
Assay type in all cases: cell-based
[1] = tested on: E. coli (strain EC103) cells; experiment: E. coli cell length (filamentation) measurement
Method: The lengths of ampicillin-susceptible E. coli (strain EC103) cells were measured after treatment for 30 minutes with no antibiotics, ampicillin, or ampicillin plus amdinocillin. Digital photomicrographs of representative cells treated with no antibiotics (16A), ampicillin (16B), and ampicillin plus amdinocillin (16C) are shown.

[2] = tested on: antibiotic susceptible and resistant E. coli strains; experiment: Mature rRNA and pre-rRNA response to beta-lactam antibiotics with or without amdinocillin; conditions: for differentiation of antibiotic-susceptible from antibiotic-resistant bacteria on addition of amdinocillin to the assay: with amdinocillin
Method: As a result of blocking filamentation, levels of mature rRNA and pre-rRNA decrease within 30-45 min when amdinocillin is combined with beta lactam antibiotics. […] For example, at a concentration of 32 μg/ml, cefazolin causes a drop of pre-rRNA within 30 min whether or not amdinocillin is present.
Ampicillin-susceptible E. coli (strain EC135) was treated with ampicillin (16 μg/ml) alone, amdinocillin (1 μg/ml) alone, ampicillin plus amdinocillin, or neither. […] Effects on pre-rRNA were more pronounced than those on mature rRNA.
Ceftriaxone-susceptible E. coli (strain EC103) was treated with ceftriaxone ([…]) alone, amdinocillin ([…]) alone, ceftriaxone plus amdinocillin, or neither. Ceftriaxone-mediated effects on mature rRNA and pre-rRNA occurred 60 min faster with amdinocillin than without amdinocillin.
Cefazolin-susceptible E. coli (strain EC103) was treated with amdinocillin (1 μg/ml) plus cefazolin at concentrations ranging from 0-32 μg/ml.
Graphs illustrating the effects of beta-lactam antibiotics plus amdinocillin on antibiotic susceptible and resistant bacteria can be found in FIGS. 14A-14D. Antibiotic susceptible and resistant bacteria were treated with amdinocillin (1 μg/ml) plus various beta lactam antibiotics including 16 μg/ml cefazolin, 4 μg/ml ceftriaxone, 32 μg/ml piperacillin plus 4 μg/ml tazobactam, and 2 μg/ml imipenem. Differential effects on pre-rRNA of susceptible from resistant bacteria were evident within 30-90 min.

[3] = tested on: lawn of E. coli (strains EC135, EC96, EC103, NDM-1); experiment: Kirby-Bauer disc diffusion antibiotic-susceptibility test
Description: FIGS. 15A-15F present digital photomicrographs showing results of Kirby-Bauer disc diffusion antibiotic-susceptibility tests. 6 mm diameter antibiotic discs were placed on agar plates seeded with a lawn of E. coli that were Ampicillin susceptible (strain EC135), Ampicillin resistant (strain EC96), Cefazolin susceptible (strain EC103), Cefazolin resistant (strain EC96), Imipenem susceptible (strain EC103) or Imipenem resistant (strain NDM-1). In each panel the antibiotic disc is on the left and the amdinocillin disc is on the right. Images were obtained after 20 hours of incubation at 37° C.

[4] = tested on: susceptible strain of E. coli; experiment: Response of pre-rRNA to cefazolin in log phase culture; conditions: log phase of growth
[5] = tested on: E. coli clinical urine isolate EC103; experiment: Electrochemical sensor assay of mature rRNA and pre-rRNA after adding an antibiotic to a growing culture; conditions: for effect on mature rRNA level: 25 μg/ml Chloramphenicol or 16 μg/ml Gentamicin added at 150 or 210 minutes; for effect on pre-rRNA level: 25 μg/ml Rifampicin, 25 μg/ml Chloramphenicol, 4 μg/ml Ciprofloxacin or 16 μg/ml Gentamicin added at 150 or 210 minutes
Method: Overnight cultures of EC103 were prepared by adding 5 μl of EC103 glycerol stock to 5 ml of MH broth with ampicillin and incubated at 37° C. overnight with shaking. […] Every 30 min, including at 0 min and the overnight culture itself, a 1 ml sample was taken for OD600 measurement and 10-fold serial dilutions (100 μl into 900 μl) were performed in room temperature MH broth. Cell density was determined by plating serial dilutions in triplicate. At each time point, culture samples were transferred to an ice water bath or centrifuged immediately at 4° C. for 3 min at 14,000 rpm.
Electrochemical detection.
Each sensor of the array consisted of a 2.5 mm diameter central working electrode, surrounded by an Au counter electrode and an Au pseudo-reference electrode. […] Washing steps were carried out after each application of reagents by applying a stream of deionized H2O to the sensor surface for approximately 2-3 sec followed by 5 sec of drying under a stream of nitrogen. Prior to addition of the first reagent, the bare gold chips were dried as described above. To functionalize the working sensor surface, a fresh mixture of 0.05 μM thiolated capture probe and 300 μM 1,6-hexanedithiol (96%, Sigma, St. Louis, Mo.) was prepared in 10 mM Tris-HCl, 1 mM EDTA and 0.3 M NaCl (pH 8.0) and allowed to stand at room temperature for 10 min. Aliquots of 6 μl of this mixture were cast over each Au working electrode in the 16-sensor array and incubated overnight at 4° C. in a humidified chamber.

Q: Which “effect on filamentation caused by beta-lactam antibiotics” value [1] does the source give for `CC1(C)S[C@@H]2[C@H](/N=C/N3CCCCCC3)C(=O)N2[C@H]1C(=O)O` [amdinocillin] here?
A: The value was “prevents filamentation”.

Q: What about the “effect on ampicillin-induced increase in cell length” value ([1]; ampicillin plus amdinocillin, 30 minutes, strain EC103) of the same compound?
A: Its value is “partially blocked”.

Q: What about the “effect of amdinocillin alone on rRNA or pre-rRNA levels” value ([2]; amdinocillin alone) of the same compound?
A: Its value is “no effect”.

Q: What about the “effect of amdinocillin on recognition of ampicillin susceptibility” value ([2]; ampicillin 16 μg/ml, amdinocillin 1 μg/ml, strain EC135) of the same compound?
A: Its value is “enabled early recognition of ampicillin susceptibility”.

Q: And the “effect of amdinocillin on recognition of cefazolin susceptibility” value ([2]; cefazolin 4 μg/ml, amdinocillin 1 μg/ml, strain EC103)?
A: The value was “enabled early recognition of cefazolin-susceptibility”.

Q: What about the “effect of amdinocillin on pre-RNA levels” value ([2]; cefazolin 32 μg/ml, amdinocillin 1 μg/ml, strain EC103) of the same compound?
A: Its value is “no effect”.

Q: What about the “synergy between amdinocillin and the antibiotics tested” value ([3]; ampicillin, cefazolin, imipenem discs, 20 hours at 37° C.) of the same compound?
A: The value was “Synergy was not observed”.

Q: And the “effect of amdinocillin on susceptibility of bacteria to beta-lactam antibiotics” value ([3]; disc diffusion)?
A: The value was “did not increase the susceptibility”.

Q: For `CC1(C)S[C@@H]2[C@H](NC(=O)[C@H](N)c3ccccc3)C(=O)N2[C@H]1C(=O)O` [ampicillin], which “average increase in length of E. coli cells” value ([1]; treatment for 30 minutes, strain EC103) is on record?
A: The value was 4 fold.

Q: And the “dependence of the amdinocillin effect on the antibiotic concentration” value [2]?
A: The value was “independent of the antibiotic concentration”.

Q: What about the “differentiation of antibiotic-susceptible from antibiotic-resistant bacteria on addition of amdinocillin to the assay” value (from here on “differentiation”) [2] of the same compound?
A: The value was “enables rapid differentiation”.

Q: Which results are given for `Cc1nnc(SCC2=C(C(=O)O)N3C(=O)[C@@H](NC(=O)Cn4cnnn4)[C@H]3SC2)s1` [cefazolin]?
A: drop in amount of pre-rRNA compared to culture without antibiotic [4]: one-log drop; time within which the pre-rRNA drop occurred [4]: ≤ 30 min; dependence of the amdinocillin effect on the antibiotic concentration [2]: dependent on the antibiotic concentration; concentration dependence of fall in pre-rRNA levels ([2]; cefazolin 0-32 μg/ml plus amdinocillin 1 μg/ml, strain EC103): fell more quickly at higher cefazolin concentrations; effect on pre-rRNA ([2]; cefazolin 4 μg/ml): does not cause a drop of pre-rRNA unless amdinocillin is present; time within which pre-rRNA drops ([2]; cefazolin 32 μg/ml, whether or not amdinocillin is present): ≤ 30 min; differentiation of antibiotic-susceptible from antibiotic-resistant bacteria on addition of amdinocillin to the assay [2]: enables rapid differentiation

Q: Which “differentiation” value [2] does the source give for `CO/N=C(\C(=O)N[C@@H]1C(=O)N2C(C(=O)O)=C(COC(C)=O)CS[C@H]12)c1csc(N)n1` [cefotaxime] here?
A: Its value is “enables rapid differentiation”.

Q: `CO/N=C(\C(=O)N[C@@H]1C(=O)N2C(C(=O)O)=C(CSc3nc(=O)c(=O)[nH]n3C)CS[C@H]12)c1csc(N)n1` [ceftriaxone] was tested. Which “how much faster effects on mature rRNA and pre-rRNA occurred with amdinocillin than without” value ([2]; ceftriaxone (8 pg/ml), amdinocillin 1 μg/ml, strain EC103) did it give?
A: Its value is 60 min.

Q: `O=C(N[C@H](CO)[C@H](O)c1ccc([N+](=O)[O-])cc1)C(Cl)Cl` [chloramphenicol] was tested. Which “effect on mature rRNA level” value [5] did it give?
A: Its value is “decrease”.

Q: What about the “effect on pre-rRNA level” value [5] of the same compound?
A: Its value is “selective increase”.

Q: Which “differentiation” value [2] does the source give for `CCN1CCN(C(=O)N[C@@H](C(=O)N[C@@H]2C(=O)N3[C@@H]2SC(C)(C)[C@@H]3C(=O)O)c2ccccc2)C(=O)C1=O` [piperacillin] here?
A: The value was “enables rapid differentiation”.

Q: Which results are given for gentamicin?
A: effect on mature rRNA level [5]: decrease; effect on pre-rRNA level [5]: without affecting

— patent US20160160268A1, “AMDINOCILLIN FOR RAPID DETERMINATION OF SUSCEPTIBILITY TO BETA-LACTAM ANTIBIOTICS” (THE REGENTS OF THE UNIVERSITY OF CALIFORNIA, priority 2013, published 2016)
